Assay results taken from PMC3658555 (ACS Chemical Biology, 2013).

Assays:
β2AR [1] = target: T1, β2AR (Homo sapiens, UniProt P07550); assay: GloSensor cAMP formation assay; type: cell-based; conditions: from cAMP formation and β-arrestin recruitment
β2AR [2] = target: T1, β2AR; assay: Bias factor by the operational model, β-arrestin recruitment; type: cell-based

T1 sequence (P07550 whole entry): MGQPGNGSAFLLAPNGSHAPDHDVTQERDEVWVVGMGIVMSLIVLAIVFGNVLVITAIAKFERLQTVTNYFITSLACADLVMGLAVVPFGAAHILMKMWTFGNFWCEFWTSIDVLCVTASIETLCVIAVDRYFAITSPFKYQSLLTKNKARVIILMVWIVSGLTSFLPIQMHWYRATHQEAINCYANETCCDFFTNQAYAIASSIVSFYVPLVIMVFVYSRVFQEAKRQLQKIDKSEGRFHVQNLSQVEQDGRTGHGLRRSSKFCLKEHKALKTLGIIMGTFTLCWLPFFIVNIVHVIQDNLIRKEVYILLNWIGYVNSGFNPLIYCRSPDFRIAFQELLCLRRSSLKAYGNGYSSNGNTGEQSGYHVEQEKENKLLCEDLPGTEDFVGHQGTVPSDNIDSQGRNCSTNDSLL

SMILES: CC(Cc1ccc2c(c1)OCO2)NCC(O)c1ccc(O)c(O)c1 (stereo not drawn) [Compound 12, protokylol]
- agonist efficacy class at β2AR (β2AR [1]): full agonists
- times more efficacious in β-arrestin recruitment than in G protein-mediated cAMP production (β2AR [2]; compared to isoproterenol, the unbiased reference): approximately 10 times
- bias factor (β2AR [2]; toward β-arrestin, from both Tango and DiscoveRx β-arrestin against Glosensor cAMP data sets, reference isoproterenol): around 1
